The subject of one data set is CUG foci in primary DM1 patient myoblasts. Nature of the data set: Dual-cut screening: FISH staining of CUG RNA foci. The format is cell-based, human. As to conditions: sgRNA pair; primary DM1 patient myoblasts; 3 μM DNA-PKi Compound 6 for 48 hours. The method in brief:
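SluCas9 RNPs (protein:sgRNA 1:3; 20 pmol SluCas9 + 60 pmol sgRNA per guide, paired 1:1) nucleofected into primary DM1 patient myoblasts, then DMSO or 3 μM DNA-PKi Compound 6 for 48 h. At 72 h post-nucleofection cells fixed, FISH-stained with Cy3-PNA(CAG)5 probe plus anti-MBNL1 and Hoechst; % CUG foci-free nuclei by high-content confocal imaging.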
As for “SluU59 + SluD48 (guide 1 CGCGGCCGGCGAACGGGGCTCG; guide 2 GAGAGCAGCGCAAGTGAGGAGG; guide RNA; listed as DNA, chemistry not fully specified)”, the “% of CUG foci free nuclei (DNA-PKi)” value is recorded as 87.28%.
Still for that read-out and setting: the result for “SluU59 + SluD56 (guide 1 CGCGGCCGGCGAACGGGGCTCG; guide 2 CCAGCCGGCTCCGCCCGCTTCG; guide RNA; listed as DNA, chemistry not fully specified)” reads 84.48%; that for “SluU59 + SluD68 (guide 1 CGCGGCCGGCGAACGGGGCTCG; guide 2 CCTGTAGCCTGTCAGCGAGTCG; guide RNA; listed as DNA, chemistry not fully specified)”, 89.37%; that for “SluU59 + SluD73 (guide 1 CGCGGCCGGCGAACGGGGCTCG; guide 2 CCAAAACGTGGATTGGGGTTGT; guide RNA; listed as DNA, chemistry not fully specified)”, 87.85%.
“SluU59 + SluD83 (guide 1 CGCGGCCGGCGAACGGGGCTCG; guide 2 GTGGGGACAGACAATAAATACC; guide RNA; listed as DNA, chemistry not fully specified)”: the “% of CUG foci free nuclei (DNA-PKi)” value came out at 90.49%.
Take “SluU59 + SluD100 (guide 1 CGCGGCCGGCGAACGGGGCTCG; guide 2 GTCCAGAGCTTTGGGCAGATGG; guide RNA; listed as DNA, chemistry not fully specified)”: the “% of CUG foci free nuclei (DNA-PKi)” value is given as 90.09%.
Still for that read-out and setting: the result for “SluU62 + SluD32 (guide 1 AGGACCCTTCGAGCCCCGTTCG; guide 2 CTTGTGCATGACGCCCTGCTCT; guide RNA; listed as DNA, chemistry not fully specified)” reads 88.75%; that for “SluU62 + SluD34 (guide 1 AGGACCCTTCGAGCCCCGTTCG; guide 2 CGCGCCAGACGCTCCCCAGAGC; guide RNA; listed as DNA, chemistry not fully specified)”, 88.29%.

Still in this data set, the particulars now being: sgRNA pair; primary DM1 patient myoblasts; vehicle (DMSO).
With “SluU59 + SluD48 (guide 1 CGCGGCCGGCGAACGGGGCTCG; guide 2 GAGAGCAGCGCAAGTGAGGAGG; guide RNA; listed as DNA, chemistry not fully specified)”, the “% of CUG foci free nuclei (Vehicle)” value amounted to 62.15%.
Consider “SluU59 + SluD56 (guide 1 CGCGGCCGGCGAACGGGGCTCG; guide 2 CCAGCCGGCTCCGCCCGCTTCG; guide RNA; listed as DNA, chemistry not fully specified)”, for which the “% of CUG foci free nuclei (Vehicle)” value turned out to be 46.4%.
“SluU59 + SluD68 (guide 1 CGCGGCCGGCGAACGGGGCTCG; guide 2 CCTGTAGCCTGTCAGCGAGTCG; guide RNA; listed as DNA, chemistry not fully specified)”: the “% of CUG foci free nuclei (Vehicle)” value came to 62.8125%.
On to “SluU59 + SluD73 (guide 1 CGCGGCCGGCGAACGGGGCTCG; guide 2 CCAAAACGTGGATTGGGGTTGT; guide RNA; listed as DNA, chemistry not fully specified)”, for which the “% of CUG foci free nuclei (Vehicle)” value was 59.22%.
For “SluU59 + SluD83 (guide 1 CGCGGCCGGCGAACGGGGCTCG; guide 2 GTGGGGACAGACAATAAATACC; guide RNA; listed as DNA, chemistry not fully specified)”, the “% of CUG foci free nuclei (Vehicle)” value was 64.61%.
For the substance “SluU59 + SluD100 (guide 1 CGCGGCCGGCGAACGGGGCTCG; guide 2 GTCCAGAGCTTTGGGCAGATGG; guide RNA; listed as DNA, chemistry not fully specified)”, the “% of CUG foci free nuclei (Vehicle)” value is 62.45%.
For “SluU62 + SluD32 (guide 1 AGGACCCTTCGAGCCCCGTTCG; guide 2 CTTGTGCATGACGCCCTGCTCT; guide RNA; listed as DNA, chemistry not fully specified)”, the “% of CUG foci free nuclei (Vehicle)” value is listed as 55.63%.
“SluU62 + SluD34 (guide 1 AGGACCCTTCGAGCCCCGTTCG; guide 2 CGCGCCAGACGCTCCCCAGAGC; guide RNA; listed as DNA, chemistry not fully specified)”: the “% of CUG foci free nuclei (Vehicle)” value turned out to be 64.71%.

Another data set deals with CTG repeat in the 3′ UTR of human DMPK gene. Nature of the data set: Dual-cut screening: CTG repeat excision efficiency by loss-of-signal ddPCR. The data set is classed as cell-based. As to conditions: sgRNA pair; primary DM1 patient myoblasts; 3 μM DNA-PKi Compound 6 for 48 hours. The method in brief: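 Upstream and downstream SluCas9 RNPs (20 pmol protein, 60 pmol sgRNA each) mixed 1:1 and nucleofected into primary DM1 patient myoblasts, then treated 48 h with DMSO or 3 μM DNA-PKi Compound 6. Genomic DNA taken 72 h post-nucleofection; excision read as loss of target signal by ddPCR versus a DMPK exon 1 reference.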
In the case of “SluU59 + SluD48 (guide 1 CGCGGCCGGCGAACGGGGCTCG; guide 2 GAGAGCAGCGCAAGTGAGGAGG; guide RNA; listed as DNA, chemistry not fully specified)”, the “Excision efficiency (by ddPCR)” value is 65.89.
Consider “SluU59 + SluD56 (guide 1 CGCGGCCGGCGAACGGGGCTCG; guide 2 CCAGCCGGCTCCGCCCGCTTCG; guide RNA; listed as DNA, chemistry not fully specified)”, for which the “Excision efficiency (by ddPCR)” value came out at 55.14.
As for “SluU59 + SluD68 (guide 1 CGCGGCCGGCGAACGGGGCTCG; guide 2 CCTGTAGCCTGTCAGCGAGTCG; guide RNA; listed as DNA, chemistry not fully specified)”, the “Excision efficiency (by ddPCR)” value worked out at 65.42.
For “SluU59 + SluD73 (guide 1 CGCGGCCGGCGAACGGGGCTCG; guide 2 CCAAAACGTGGATTGGGGTTGT; guide RNA; listed as DNA, chemistry not fully specified)”, the “Excision efficiency (by ddPCR)” value is on record as 64.95.
Regarding “SluU59 + SluD83 (guide 1 CGCGGCCGGCGAACGGGGCTCG; guide 2 GTGGGGACAGACAATAAATACC; guide RNA; listed as DNA, chemistry not fully specified)”, the “Excision efficiency (by ddPCR)” value came to 64.95.
Turning to “SluU59 + SluD100 (guide 1 CGCGGCCGGCGAACGGGGCTCG; guide 2 GTCCAGAGCTTTGGGCAGATGG; guide RNA; listed as DNA, chemistry not fully specified)”, the “Excision efficiency (by ddPCR)” value worked out at 68.69.
As for “SluU62 + SluD32 (guide 1 AGGACCCTTCGAGCCCCGTTCG; guide 2 CTTGTGCATGACGCCCTGCTCT; guide RNA; listed as DNA, chemistry not fully specified)”, the “Excision efficiency (by ddPCR)” value amounted to 79.91.
As for “SluU62 + SluD34 (guide 1 AGGACCCTTCGAGCCCCGTTCG; guide 2 CGCGCCAGACGCTCCCCAGAGC; guide RNA; listed as DNA, chemistry not fully specified)”, the “Excision efficiency (by ddPCR)” value is 64.95.

Still in this data set, the particulars now being: sgRNA pair; primary DM1 patient myoblasts; vehicle (DMSO).
“SluU59 + SluD48 (guide 1 CGCGGCCGGCGAACGGGGCTCG; guide 2 GAGAGCAGCGCAAGTGAGGAGG; guide RNA; listed as DNA, chemistry not fully specified)”: the “Excision efficiency by ddPCR (Vehicle)” value came to 47.17.
Consider “SluU59 + SluD56 (guide 1 CGCGGCCGGCGAACGGGGCTCG; guide 2 CCAGCCGGCTCCGCCCGCTTCG; guide RNA; listed as DNA, chemistry not fully specified)”, for which the “Excision efficiency by ddPCR (Vehicle)” value came out at 35.6.
The same measure, in the same setting: the value for “SluU59 + SluD68 (guide 1 CGCGGCCGGCGAACGGGGCTCG; guide 2 CCTGTAGCCTGTCAGCGAGTCG; guide RNA; listed as DNA, chemistry not fully specified)” was 58.24; that for “SluU59 + SluD73 (guide 1 CGCGGCCGGCGAACGGGGCTCG; guide 2 CCAAAACGTGGATTGGGGTTGT; guide RNA; listed as DNA, chemistry not fully specified)” was 42.14.
For the substance “SluU59 + SluD83 (guide 1 CGCGGCCGGCGAACGGGGCTCG; guide 2 GTGGGGACAGACAATAAATACC; guide RNA; listed as DNA, chemistry not fully specified)”, the “Excision efficiency by ddPCR (Vehicle)” value amounted to 49.18.
In the case of “SluU59 + SluD100 (guide 1 CGCGGCCGGCGAACGGGGCTCG; guide 2 GTCCAGAGCTTTGGGCAGATGG; guide RNA; listed as DNA, chemistry not fully specified)”, the “Excision efficiency by ddPCR (Vehicle)” value worked out at 37.61.
For “SluU62 + SluD32 (guide 1 AGGACCCTTCGAGCCCCGTTCG; guide 2 CTTGTGCATGACGCCCTGCTCT; guide RNA; listed as DNA, chemistry not fully specified)”, the “Excision efficiency by ddPCR (Vehicle)” value turned out to be 50.19.
For the substance “SluU62 + SluD34 (guide 1 AGGACCCTTCGAGCCCCGTTCG; guide 2 CGCGCCAGACGCTCCCCAGAGC; guide RNA; listed as DNA, chemistry not fully specified)”, the “Excision efficiency by ddPCR (Vehicle)” value is 48.18.

Values taken from patent publication US20240173432A1, “Compositions and Methods for Treatment of Myotonic Dystrophy Type 1 with CRISPR/SluCas9” (Vertex Pharmaceuticals Incorporated, priority 2021, published 2024).
